# According to patent US11319306B2, “Compositions and methods for treating neurodegenerative diseases” (Azevan Pharmaceuticals, Inc., priority 2014, dated 2022):
# Where two headings read alike, the source gives them in different places.
# Legend:
# awake rats = assay: Resident-intruder model of stress and aggression in rats, awake fMRI neuroimaging; assay type: in vivo, rat; conditions: pretreatment 5 mg/kg 90 minutes before test session, mate + intruder; listed as AVN246
# Excerpt: Resident-intruder model of stress and aggression in rats. Neuroimaging is used to assess the blockade of stress/arousal with test compound compared to control. The effect of AVN251-HCl on functional circuitry was examined using the imaging method for awake rats. Additional details of the assay are described in Ferris et al. Imaging the neural circuitry and chemical control of aggressive motivation.
# Male rats in the company of a female cage mate piloerect in the presence of a male intruder. Piloerection is a sign of stress and aggressive intent and is associated with activation of stress/arousal circuits in the brain. Stress circuit activation in response to an intruder male is assessed by obtaining brain scans viewed from a caudal/dorsal perspective as translucent shells. The localization of activated voxels is mapped as 3D volumes of activation, which are composed of 10 subjects each. Once fully registered and segmented, the statistical responses for each subject are averaged on a voxel-by-voxel basis. Those averaged voxels exceeding a 2.0% threshold are shown in their appropriate spatial location. Functional images are acquired on awake rats at 4.7 T.
# Resident male rats from six male/female pairs are imaged while fully awake, and presented with their mate, or their mate+an intruder, a highly stressful stimulus. […] The total volume of brain activation for resident males confronted with their mate alone, mate plus intruder, and mate plus intruder in the presence of AVN251-HCl are viewed as 3D models.
# Awake rats are imaged when presented with their mate, or their mate+an intruder. […] In each scan, the dark shaded areas represent activation of vasopressin receptor signaling.
# Pharmacokinetics = assay type: in vivo; conditions: b.i.d. dosing
# Excerpt: Pharmacokinetics. Compounds described herein are rapidly absorbed after oral administration. Compounds described herein cross the blood-brain-barrier and achieve therapeutically effective concentrations in the CNS. Compounds described herein may be dosed according to a wide variety of protocols, including but not limited to q.d., b.i.d., and the like.
# human brain = assay: fMRI BOLD imaging of test subjects given intranasal AVP (neurodegenerative disease model), emotional faces task; assay type: in vivo; conditions: following IN-AVP, compared to placebo
# Procedure: Neurodegenerative disease (ND) model. Test subjects are randomized to an ND model group (for example, n=15), and a baseline control group (for example, n=14). The ND model group is administered intranasal arginine vasopressin (IN-AVP), 40 IU Pitressin (JHP Pharmaceuticals) in a sterile aqueous solution. IN-AVP doses are administered in 3 mL intranasal atomizers (MAD300; Wolfe Tory Medical, Salt Lake City) 45 minutes prior to fMRI imaging. The baseline control group is administered intranasal vehicle only. All test subjects are evaluated by fMRI imaging.
# fMRI imaging. Data are acquired with a Philips Achieva Quasar dual 16 Channel 3T MRI scanner at the University of Chicago Brain Research Imaging Center using a reverse spiral imaging sequence to minimize ventral brain signal dropout. […] Categories include: angry faces, neutral faces, happy faces, and a fixation point. Test subjects are given the “implicit” task of identifying the gender of each image by button press. Statistical parametric maps are generated based on pre-processed 3 mm^3 images that are spatially smoothed with an 8 mm kernel, bandpass filtered to remove drift, checked for excessive movement, and movement-corrected. Images from each individual are warped to an echoplanar image template in Montreal Neurological Institute space. Voxelwise whole brain analysis is conducted on data thresholded at >10 contiguous voxels, with small volume correction p<0.05, to examine effects of test compound versus placebo on BOLD activity in a priori regions of interest (ROI). ROIs of the identified clusters of BOLD differences are extracted as parameter estimates of average BOLD signal intensity in anatomically defined substructures and exported into SPSS (IBM; Armont, N.Y.) for ANCOVA, covarying for baseline parameter estimates in matching ROIs. Extracted parameter estimates of a priori ROIs are also examined with RM-ANOVA in SPSS with the within subjects factor and between subjects factors of all combinations of test compound versus placebo, and IN-AVP versus intranasal placebo. Comparisons are made between emotion conditions (angry faces) and various neutral conditions (neutral faces, happy faces, fixation points). Comparisons are also made between emotion conditions (neutral faces) and various neutral conditions (happy faces, fixation points).
# Neuropsychiatric symptom treatment with vasopressin antagonists. A first group of test subjects in a baseline control group receiving intranasal placebo is randomized to test compound or placebo. A second group of test subjects in a ND model group receiving IN-AVP is randomized to test compound or placebo. Test compound, such as SRX228, SRX246, SRX251, SRX296, or SRX576, or placebo is administered in blinded form for 5-10 days (mean 7.3+/−1.3 days; minimum 5 days; […]) prior to fMRI. Alternatively, test compound, such as SRX228, SRX246, SRX251, SRX296, and SRX576, or placebo is administered in blinded form after IN-AVP or intranasal placebo administration, and prior to fMRI. […] For example, test compound is SRX246 (n=15; 80, 120, or 160 mg po bid) versus placebo (n=14) in oral capsules; or test compound is SRX251 (n=15; 80, 120, or 160 mg po bid) versus placebo (n=14) in oral capsules.
# V2 = V2 (Homo sapiens, UniProt P30518); assay: V2 receptor inhibition data (Ki); assay type: binding; conditions: receptor selectivity table
# V1b receptor = molecular target: T1, V1b receptor (Homo sapiens, UniProt P47901); assay: Human or rat vasopressin V1b cell-based receptor binding assay; conditions: receptor selectivity table; read-out: inhibition data Ki, V1b
# T1 construct: expressed in transfected cells; host or cells: CHO-K1 (ATCC), vector pCI-neo, G418-selected clones
# T1 sequence (P47901 1-424): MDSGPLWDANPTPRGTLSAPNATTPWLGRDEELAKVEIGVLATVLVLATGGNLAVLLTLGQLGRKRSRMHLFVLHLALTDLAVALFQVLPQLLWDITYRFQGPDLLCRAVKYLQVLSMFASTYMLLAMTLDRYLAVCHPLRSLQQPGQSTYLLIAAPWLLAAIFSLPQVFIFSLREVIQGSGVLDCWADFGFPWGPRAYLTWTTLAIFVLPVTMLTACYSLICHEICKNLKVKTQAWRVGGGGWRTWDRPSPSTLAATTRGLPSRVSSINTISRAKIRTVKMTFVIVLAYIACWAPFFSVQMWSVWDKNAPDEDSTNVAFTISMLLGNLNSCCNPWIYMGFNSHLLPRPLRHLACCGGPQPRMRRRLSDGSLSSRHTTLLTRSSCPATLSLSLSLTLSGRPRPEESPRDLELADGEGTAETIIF
# Excerpt: Human vasopression V1b receptor-expressing cells. Human vasopressin receptor 1b (hV1b) cDNA (see, Lolait et al., “Extrapituitary expression of the rat V1b vasopressin receptor gene” Proc. Natl. Acad. Sci. USA. 92:6783-7 (1995); de Keyzer et al., “Cloning and characterization of the human V3(V1b) pituitary vasopressin receptor” FEBS Lett. 356:215-20 (1994); Sugimoto et al., “Molecular cloning and functional expression of a cDNA encoding the human V1b vasopressin receptor” J. Biol. Chem. 269:27088-92 (1994)) was inserted into a mammalian cell expression vector PCI-neo (Promega) at EcoR1 site. The recombinant plasmid carrying hV1b cDNA was identified from transformed E. Coli clones and used for the transfection of Chinese hamster ovary cell (CHO-Kl, ATCC). Two micrograms of hV1b receptor DNA was introduced into 10^5 CHO cells cultured in 6-well plate, using Fugene-6 mediated transfection technique (Boehringer Mannheim). Twenty-four hrs post transfection, Cells were then cultured under selection of G-418 (0.25 mg/ml) supplemented to the culture medium. Three days later, limited dilution was carried out to obtain single cell clones in 96-well plates. […]
# Human or rat vasopression V1b cell-based receptor binding assay. […] Samples were counted in a liquid scintillation counter (Beckman LS3801). IC50 and Ki values were calculated using Prism Curve fitting software. […]
# human V1a receptor = molecular target: T2, human V1a receptor (Homo sapiens, UniProt P37288); assay: Human vasopressin V1a receptor binding assay (3H-AVP competition, hV1a CHO cells)
# T2 construct: host or cells: CHO cells (hV1a cell line)
# Summary of the method: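 Whole CHO cells expressing hV1a were incubated with 1 nM 3H-AVP (as printed "InM") and 10-fold dilutions of compound in HEPES/BSA/DMEM buffer, pH 7.0, for 45 min at 37 °C. Non-specific binding was defined with 100 nM cold AVP. Bound radioactivity was SDS-solubilised and counted by scintillation; IC50 from curve fitting.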
# T2 sequence (P37288 whole entry): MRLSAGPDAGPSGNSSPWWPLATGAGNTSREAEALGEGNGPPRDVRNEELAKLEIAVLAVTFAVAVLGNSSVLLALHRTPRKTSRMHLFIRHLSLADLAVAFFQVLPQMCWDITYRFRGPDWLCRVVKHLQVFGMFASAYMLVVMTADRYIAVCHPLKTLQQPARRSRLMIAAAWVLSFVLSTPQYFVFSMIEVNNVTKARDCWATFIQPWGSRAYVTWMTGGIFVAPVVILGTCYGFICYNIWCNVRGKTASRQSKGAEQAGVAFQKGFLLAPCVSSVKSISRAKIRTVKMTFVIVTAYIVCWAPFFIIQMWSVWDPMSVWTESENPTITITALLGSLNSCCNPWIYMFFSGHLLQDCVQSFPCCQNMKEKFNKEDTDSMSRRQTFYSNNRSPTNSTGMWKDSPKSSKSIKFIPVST
# Sequence of V2 (P30518 whole entry): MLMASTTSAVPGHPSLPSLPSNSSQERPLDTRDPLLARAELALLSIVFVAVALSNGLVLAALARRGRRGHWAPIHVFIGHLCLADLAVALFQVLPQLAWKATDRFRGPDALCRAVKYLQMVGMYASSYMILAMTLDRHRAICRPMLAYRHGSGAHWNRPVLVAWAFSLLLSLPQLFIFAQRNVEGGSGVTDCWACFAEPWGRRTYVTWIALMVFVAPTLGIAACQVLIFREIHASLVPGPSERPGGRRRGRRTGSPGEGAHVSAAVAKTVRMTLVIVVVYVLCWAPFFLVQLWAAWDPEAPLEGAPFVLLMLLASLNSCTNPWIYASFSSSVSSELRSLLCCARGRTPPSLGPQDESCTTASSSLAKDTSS
smiles,measurement,setting,value
"C[C@@H](NC(=O)[C@@H](CC(=O)N1CCC(N2CCCCC2)CC1)N1C(=O)[C@@H](N2C(=O)OC[C@@H]2c2ccccc2)[C@H]1/C=C/c1ccccc1)c1ccccc1 [Example 224, 2(R)-[[4-(Piperidinyl)piperidinyl]carbonylmethyl]-2-[3(S)-(4(S)-phenyloxazolidin-2-on-3-yl)-4(R)-(2-styryl)azetidin-2-on-1-yl]acetic acid N—[(R)-α-methylbenzyl]amide]","stress/arousal response in amygdala, cortex, hippocampus and thalamus",awake rats,blocked the stress/arousal response
same,T1/2,Pharmacokinetics,improved
same,accumulation,Pharmacokinetics,1.7 fold
same,BOLD activation signal in anterior cingulate cortex and medial prefrontal cortex,"human brain; posttreatment, angry faces versus happy faces",significantly decreases
same,BOLD activation signal in temporoparietal cortex (Brodmann Area 39) and amygdala,"human brain; posttreatment, angry faces versus happy faces, p<0.05",significantly decreases
same,BOLD activation signal in temporoparietal cortex (Brodmann Area 39) and amygdala,"human brain; pretreatment, angry faces versus fixation point, p<0.001",significantly decreases
same,BOLD activation signal in medial prefrontal cortex,"human brain; pretreatment, angry faces versus fixation point, p<0.005",significantly decreases
same,cortical reactivity to angry faces in anterior cingulate cortex and medial superior prefrontal cortex,human brain; pretreatment,significantly attenuated
C[C@@H](NC(=O)[C@@H](CC(=O)N1CCC(N2CCCCC2)CC1)N1C(=O)[C@@H](N2C(=O)OC[C@@H]2c2ccccc2)[C@H]1/C=C/c1cccc(I)c1)c1ccccc1 [Example 266],Ki,V2,> 1000 nM
same,Ki,V1b receptor,> 100 nM
same,IC50,"human V1a receptor; 3H-AVP competition, CHO cells expressing human V1a, read-out: V1a Binding Affinity IC50",1.8 nM
same,Ki,"human V1a receptor; 3H-AVP competition, CHO cells expressing human V1a, read-out: V1a Ki",1.1 nM
same,Ki,"human V1a receptor; receptor selectivity table, read-out: inhibition data Ki, V1a",1.1 nM
